System: cardiac hypertrophy
Test: Isoproterenol-induced cardiac hypertrophy in mice, osmotic micro-infusion pumps, echocardiography before and 7 days after start of infusion
Type: in vivo
Description: Validation of a relevant relationship between chlorpromazine and cardiac hypertrophy was performed through a series of laboratory studies in mice comparing the effects of a known beta-adrenergic agonist (also known to induce hypertrophy), isoproterenol, with isoproterenol plus chlorpromazine.
In brief, the study included 2 groups of 8 mice fitted with osmotic micro-infusion pumps. One group was given a continuous dose of 20 mg/kg/day isoproterenol and the other 20 mg/kg/day isopreterenol+10 mg/kg/day chlorpromazine. A smaller dose of chlorpromazine was chosen in preference to a larger one to minimize alterations in feeding behavior. Additionally, it reduced an adverse reaction between chlorpromazine and avertin (tribromoethanol), a anesthetic agent. Echocardiograms were taken before treatment and 7 days after initiation of infusions. Mice were sacrificed and their heart weighed.
FIG. 19 and TABLE 22 summarize the study findings. Generally, cardiac hypertrophy (as assessed by echocardiography) was reduced in mice treated with chlorpromazine plus isoproterenol. […] Echocardiography was use to estimate the change in weight or thickness of several different cardiac structures over the course of treatment. For FIG. 19, ten mice received isoproterenol (ISO) and eight received isoproterenol and chlorpromazine (CPZ+ISO), where LVW=left ventricle weight (CPZ+ISO 11±27%, ISO 51±43%, P<0.02); LVMI=left ventricular mass index (CPZ+ISO 11±28%, ISO 50±52%, P<0.04); PWT=posterior wall thickness (CPZ+ISO 16±16%, ISO 36±27%, P<0.05), IVSWT=intraventricular septum wall thickness (CPZ+ISO 19±18%, ISO 31±20%, P<0.12).

CC(C)NCC(O)c1ccc(O)c(O)c1 (stereo not shown) [ISO, isoproterenol]
LVMI=left ventricular mass index (FIG. 19, change over course of treatment, echocardiography, P<0.04): 50±52%
PWT=posterior wall thickness (FIG. 19, change over course of treatment, echocardiography, P<0.05): 36±27%
IVSWT=intraventricular septum wall thickness (FIG. 19, change over course of treatment, echocardiography, P<0.12): 31±20%
LVW=left ventricle weight (FIG. 19, change over course of treatment, echocardiography, ten mice ISO, eight CPZ+ISO, P<0.02): 51±43%
DI VS WT (Table 22, change in intraventricular septum wall thickness over treatment, echocardiography, 7 days infusion): 31% ± 21%
LLVW (Table 22, change in left ventricle weight over treatment, echocardiography, 20 mg/kg/day isoproterenol with or without 10 mg/kg/day chlorpromazine, 7 days): 53% ± 45%
OLVMI (Table 22, change in left ventricular mass index over treatment, echocardiography, 7 days infusion): 50% ± 55%
OPWT (Table 22, change in posterior wall thickness over treatment, echocardiography, 7 days infusion): 36% ± 28%

C=CCN1CC[C@]23c4c5ccc(O)c4O[C@H]2C(=O)CC[C@@]3(O)[C@H]1C5 [Naloxone]
effect of the drug in a mouse model of cardiohypertrophy (mouse model as described for chlorpromazine, values not given): validated in vivo

CN(C)CCCN1c2ccccc2Sc2ccc(Cl)cc21 [chlorpromazine]
cardiac hypertrophy (as assessed by echocardiography) (10 mg/kg/day chlorpromazine + 20 mg/kg/day isoproterenol versus isoproterenol alone, mice): protected the mice against the development of cardiac hypertrophy
